These results are taken from patent US12122763B2, “Substituted piperidines for androgen receptor degradation” (UBIX THERAPEUTICS, INC., priority 2020, dated 2024).

The experiment concerns the target T1, Androgen Receptor (AR) protein (Homo sapiens, UniProt P10275, T878A).
T1 construct: endogenous in cells; host or cells: LNCaP
The experiment can be described thus: Androgen Receptor (AR) protein degradation assay in LNCaP cells, western blotting. The format is cell-based. The following applies: 20 h; for inhibition at 0.01 µM: 0.01 μM compound; for inhibition at 0.1 µM: 0.1 μM compound; for inhibition at 1 µM: 1 μM compound; for inhibition at 10 µM: 10 μM compound. As for the experimental part: Experimental Example 1: Androgen Receptor (AR) Protein Degradation Assay
After treating LNCaP cells with the synthesized Example compound, the amount of AR protein present in the cells was measured. The amount of AR protein was measured using western blotting detection method. The protocol of the experiment using LNCaP cells was as follows:
[Culture] LNCaP cells were resuspended in RPMI1640 MEDIUM (Hyclone, SH30027.01), 10% FBS (Hyclone, SV30207.02), and 1% Penicillin-streptomycin (Welgene, LS 202-02) media to be 3×10^5/mL. Then, 1 mL each was seeded in a 12-well plate. After that, they were cultured for 3 days.
[Compound treatment] 10 μl of 0.1, 1, 10, and 100 μM compound, which is the final compound treatment concentration and a 100× stock of 0.001, 0.01, 0.1, and 1 μM, was added in 1 ml media of each well, and 20 hours later, the cells were harvested.
[Cell Lysis] Cell pellets were suspended using 1% SDS lysis buffer (50 mM Tris, 1 mM EDTA, 1% SDS, pH 8.0, 0.5 mM PMSF, 1× Protease/Phosphatase inhibitor Cocktail (Cell Signaling Technology, 5872s)), and sonication (70% AMP, 5 cycles (30 sec ON/59 sec OFF)) was performed. Cell lysate was obtained after centrifugation at 4° C., 15000 g, for 20 minutes.
[Protein quantification] A BCA protein assay (SMART™ BCA Protein Assay Kit, iNtRON Biotechnology, 21071) was performed using a 96-well microplate. After adding 5 μl cell lysate and 5 μl 1% SDS lysis buffer to each well of the 96-well plate, 200 μl of BCA reagent (Reagent A:Reagent B=50:1) was additionally added. After incubation at 37° C. for 30 minutes, it was cooled at room temperature for 10 minutes. Then, absorbance was measured at a wavelength of 562 nm. The unknown protein concentration was measured using a BSA standard curve (0, 0.125, 0.25, 0.5, 1, 2 mg/ml). Western blotting samples were prepared by mixing cell lysate, 1% SDS lysis buffer, 4× Bolt™ LDS Sample buffer (Invitrogen, B0008), and 10× Bolt™ Sample Reducing Agent (Invitrogen, B0009) and boiling the mixture at 70° C. for 10 minutes.
[Electrophoresis] After loading 8 μg of protein sample into each well of Bolt™ 4 to 12%, Bis-Tris, 1.0 mm Mini Protein Gel, 17-well (Invitrogen, NW04127BOX), Bolt™ MES SDS Running Buffer (Invitrogen, B0002) was used for electrophoresis at 200V (constant V) for 50 minutes.
[Transfer] Using electrophoresis gel and Trans-Blot® Turbo™ Transfer Starter System (Bio-RAD, #17001918, Mini Nitrocellulose), transfer proceeded for 15 minutes under the condition of 1.3A (Constant A) and 25V (Limit V). To confirm protein transfer, 15 ml of Ponceau S solution (Sigma, P7170-1L) was used for staining for 1 minute, followed by washing to confirm the degree of transfer.
[Blocking] Membranes for AR detection were blocked for 45 minutes with 5% skim milk/0.2% TBST (Skim milk: BD, 232100/20× TBS: Biosesang, TR2008-100-00/10% Tween 20 Solution: Bio-RAD, #161-0781). Membranes for GAPDH and β-actin detection were blocked for 45 minutes with Odyssey blocking buffer: 0.1% TBST=1:1 (Odyssey blocking buffer: Li-COR Biosciences, 927-50000).
[Antibody and detection] The primary AR antibody (Androgen Receptor: CST, 5153s) was mixed with 5% skim milk/0.2% TBST at a ratio of 1:1000 and attached for 3 hours at room temperature. Primary β-actin antibody (GeneTex, 629630) was mixed with 5% BSA/0.2% TBST at a ratio of 1:2000 and attached for 3 hours at room temperature. Primary GAPDH antibody (GeneTex, 100118) was mixed with 5% BSA/0.2% TBST at a ratio of 1:2000 and attached for 3 hours at room temperature. After 3 hours, it was washed 3 times every 5 minutes using TBST (0.2% Tween 20). Anti-rabbit IgG, HRP-linked Antibody (CST, 7074s), secondary antibody for the AR antibody was mixed with 5% skim milk/0.2% TBST at a ratio of 1:5000 and attached for 45 minutes at room temperature. […]
Background: A western blot detects proteins with antibodies after separation by electrophoresis.

T1 sequence (P10275 whole entry T878A): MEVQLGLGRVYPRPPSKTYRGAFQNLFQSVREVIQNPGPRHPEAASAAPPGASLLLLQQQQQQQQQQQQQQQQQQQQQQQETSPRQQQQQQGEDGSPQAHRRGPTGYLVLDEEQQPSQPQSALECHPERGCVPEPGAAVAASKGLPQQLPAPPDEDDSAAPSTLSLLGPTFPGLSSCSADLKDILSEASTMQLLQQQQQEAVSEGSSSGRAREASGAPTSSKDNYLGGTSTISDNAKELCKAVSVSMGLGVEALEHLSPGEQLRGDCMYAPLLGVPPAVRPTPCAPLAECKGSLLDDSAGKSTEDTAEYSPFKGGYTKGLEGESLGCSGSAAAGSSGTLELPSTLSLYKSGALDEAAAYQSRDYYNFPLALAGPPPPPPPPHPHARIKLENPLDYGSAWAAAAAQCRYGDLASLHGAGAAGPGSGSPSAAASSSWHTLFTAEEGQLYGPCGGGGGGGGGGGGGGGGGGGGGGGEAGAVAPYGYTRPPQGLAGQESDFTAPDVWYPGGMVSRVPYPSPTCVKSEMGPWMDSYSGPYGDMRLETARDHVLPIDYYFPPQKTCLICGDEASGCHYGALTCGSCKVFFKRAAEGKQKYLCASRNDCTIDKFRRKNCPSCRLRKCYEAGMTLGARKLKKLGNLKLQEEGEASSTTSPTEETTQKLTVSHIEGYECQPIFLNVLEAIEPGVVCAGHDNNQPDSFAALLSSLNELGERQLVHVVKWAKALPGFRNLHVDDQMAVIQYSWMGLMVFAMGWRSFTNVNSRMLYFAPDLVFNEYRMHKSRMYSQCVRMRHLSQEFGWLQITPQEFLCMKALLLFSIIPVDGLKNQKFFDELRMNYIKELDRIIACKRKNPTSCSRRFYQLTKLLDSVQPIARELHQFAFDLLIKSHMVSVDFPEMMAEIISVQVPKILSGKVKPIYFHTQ
T1 sequence (Q96SW2 whole entry partner): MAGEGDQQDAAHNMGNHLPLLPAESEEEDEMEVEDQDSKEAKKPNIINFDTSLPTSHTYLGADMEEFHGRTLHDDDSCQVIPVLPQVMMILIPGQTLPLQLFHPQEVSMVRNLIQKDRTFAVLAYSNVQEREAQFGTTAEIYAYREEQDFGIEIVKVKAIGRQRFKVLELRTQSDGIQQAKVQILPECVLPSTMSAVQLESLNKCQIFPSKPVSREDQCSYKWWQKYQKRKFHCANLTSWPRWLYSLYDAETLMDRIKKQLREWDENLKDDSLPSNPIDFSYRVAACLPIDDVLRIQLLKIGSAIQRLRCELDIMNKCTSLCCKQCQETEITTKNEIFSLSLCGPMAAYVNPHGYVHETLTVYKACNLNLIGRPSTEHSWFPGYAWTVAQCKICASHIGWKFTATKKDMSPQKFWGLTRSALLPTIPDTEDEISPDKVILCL

In the case of `N#Cc1ccc(N2CCC(C(=O)Nc3ccc(CCN4CCC(CN5CCN(c6ccc7c(c6)C(=O)N(C6CCC(=O)NC6=O)C7=O)CC5)CC4)cn3)CC2)cc1C(F)(F)F` (centres unmarked) [Example 165, 1-(4-cyano-3-(trifluoromethyl)phenyl)-N-(5-(2-(4-((4-(2-(2,6-dioxopiperidin-3-yl)-1,3-dioxoisoindolin-5-yl)piperazin-1-yl)methyl)piperidin-1-yl)ethyl)pyridin-2-yl)piperidine-4-carboxamide], the inhibition at 0.01 µM was 42%, the inhibition at 0.1 µM is 87% and the inhibition at 1 µM was 95%.

For the compound `N#Cc1ccc(N2CCC(C(=O)Nc3ccc(N4CCC(CN5CCN(C6CN(c7ccc8c(c7)C(=O)N(C7CCC(=O)NC7=O)C8=O)C6)CC5)CC4)cn3)CC2)cc1C(F)(F)F` (centres unmarked) [Example 35, 1-(4-cyano-3-(trifluoromethyl)phenyl)-N-(5-(4-((4-(1-(2-(2,6-dioxopiperidin-3-yl)-1,3-dioxoisoindolin-5-yl)azetidin-3-yl)piperazin-1-yl)methyl)piperidin-1-yl)pyridin-2-yl)piperidine-4-carboxamide], the inhibition at 0.01 µM was 71%, the inhibition at 0.1 µM worked out at 97% and the inhibition at 1 µM was found to be 95%.

`N#Cc1ccc(N2CCC(C(=O)Nc3ccc(N4CCC(OCCN5CCN(c6cccc7c6C(=O)N(C6CCC(=O)NC6=O)C7=O)CC5)CC4)cn3)CC2)cc1C(F)(F)F` (centres unmarked) [Example 152, 1-(4-cyano-3-(trifluoromethyl)phenyl)-N-(5-(4-(2-(4-(2-(2,6-dioxopiperidin-3-yl)-1,3-dioxoisoindolin-4-yl)piperazin-1-yl)ethoxy)piperidin-1-yl)pyridin-2-yl)piperidine-4-carboxamide]: the inhibition at 0.01 µM is -46%, the inhibition at 0.1 µM was found to be 28% and the inhibition at 1 µM came out at 29%.

Turning to `N#Cc1ccc(N2CCC(C(=O)Nc3ncc(N4CCC(CN5CCN(CC6CCN(c7cc8c(cc7F)C(=O)N(C7CCC(=O)NC7=O)C8=O)CC6)CC5)CC4)cn3)CC2)cc1C(F)(F)F` (centres unmarked) [Example 159, 1-(4-cyano-3-(trifluoromethyl)phenyl)-N-(5-(4-((4-((1-(2-(2,6-dioxopiperidin-3-yl)-6-fluoro-1,3-dioxoisoindolin-5-yl)piperidin-4-yl)methyl)piperazin-1-yl)methyl)piperidin-1-yl)pyrimidin-2-yl)piperidine-4-carboxamide], the inhibition at 0.01 µM was -16%, the inhibition at 0.1 µM was -5% and the inhibition at 1 µM amounted to 84%.

Take `N#Cc1ccc(N2CCC(C(=O)Nc3ccc(CN4CCC(CN5CCC(Oc6ccc7c(c6)C(=O)N(C6CCC(=O)NC6=O)C7=O)CC5)CC4)cn3)CC2)cc1C(F)(F)F` (centres unmarked) [Example 163, 1-(4-cyano-3-(trifluoromethyl)phenyl)-N-(5-((4-((4-((2-(2,6-dioxopiperidin-3-yl)-1,3-dioxoisoindolin-5-yl)oxy)piperidin-1-yl)methyl)piperidin-1-yl)methyl)pyridin-2-yl)piperidine-4-carboxamide]: the inhibition at 0.01 µM was -14%, the inhibition at 0.1 µM is 60% and the inhibition at 1 µM was determined as 78%.

Turning to `N#Cc1ccc(N2CCC(C(=O)Nc3ccc(N4CCC(CN5CCN(c6ccc7c(c6)C(=O)N(C6CCC(=O)NC6=O)C7=O)CC5)CC4)cn3)CC2)cc1Cl` (centres unmarked) [Example 2, 1-(3-chloro-4-cyanophenyl)-N-(5-(4-((4-(2-(2,6-dioxopiperidin-3-yl)-1,3-dioxoisoindolin-5-yl)piperazin-1-yl)methyl)piperidin-1-yl)pyridin-2-yl)piperidine-4-carboxamide], the inhibition at 0.01 µM was -9%, the inhibition at 0.1 µM amounted to 68%, the inhibition at 1 µM came out at 97% and the inhibition at 10 µM is 96%.

Take `COc1ccc(C(=O)N2CC3(CCN(CC4CCN(c5ccc(NC(=O)C6CCN(c7ccc(C#N)c(C(F)(F)F)c7)CC6)nc5)CC4)CC3)C2)cc1N1CCC(=O)NC1=O` [Example 65, 1-(4-cyano-3-(trifluoromethyl)phenyl)-N-(5-(4-((2-(3-(2,4-dioxotetrahydropyrimidin-1(2H)-yl)-4-methoxybenzoyl)-2,7-diazaspiro[3.5]nonan-7-yl)methyl)piperidin-1-yl)pyridin-2-yl)piperidine-4-carboxamide]: the inhibition at 0.01 µM was 55%, the inhibition at 0.1 µM worked out at 80%, the inhibition at 1 µM was 82% and the inhibition at 10 µM was determined as 63%.

For the compound `N#Cc1ccc(N2CCC(F)(C(=O)Nc3ccc(N4CCC(CN5CC6(CCN(c7ccc8c(c7)C(=O)N(C7CCC(=O)NC7=O)C8=O)CC6)C5)CC4)cn3)CC2)cc1C(F)(F)F` (centres unmarked) [Example 54, 1-(4-cyano-3-(trifluoromethyl)phenyl)-N-(5-(4-((7-(2-(2,6-dioxopiperidin-3-yl)-1,3-dioxoisoindolin-5-yl)-2,7-diazaspiro[3.5]nonan-2-yl)methyl)piperidin-1-yl)pyridin-2-yl)-4-fluoropiperidine-4-carboxamide], the inhibition at 0.01 µM is 60%, the inhibition at 0.1 µM was 95% and the inhibition at 1 µM stood at 98%.

As for `CN(CCC1CCN(c2ccc(NC(=O)C3CCN(c4ccc(C#N)c(C(F)(F)F)c4)CC3)nc2)CC1)C1CCN(c2ccc3c(c2)C(=O)N(C2CCC(=O)NC2=O)C3=O)CC1` (centres unmarked) [Example 102, 1-(4-cyano-3-(trifluoromethyl)phenyl)-N-(5-(4-(2-((1-(2-(2,6-dioxopiperidin-3-yl)-1,3-dioxoisoindolin-5-yl)piperidin-4-yl)(methyl)amino)ethyl)piperidin-1-yl)pyridin-2-yl)piperidine-4-carboxamide], the inhibition at 0.01 µM amounted to 35%, the inhibition at 0.1 µM worked out at 90% and the inhibition at 1 µM was 92%.

With `N#Cc1ccc(N2CCC(C(=O)Nc3ccc(OCC4CCN(CC5CN(c6ccc7c(c6)C(=O)N(C6CCC(=O)NC6=O)C7=O)C5)CC4)cn3)CC2)cc1C(F)(F)F` (centres unmarked) [Example 183, 1-(4-cyano-3-(trifluoromethyl)phenyl)-N-(5-((1-((1-(2-(2,6-dioxopiperidin-3-yl)-1,3-dioxoisoindolin-5-yl)azetidin-3-yl)methyl)piperidin-4-yl)methoxy)pyridin-2-yl)piperidine-4-carboxamide], the inhibition at 0.01 µM amounted to 72%, the inhibition at 0.1 µM came to 87% and the inhibition at 1 µM is 93%.

For the compound `C[C@@H]1CN(CC2CN(c3ccc(NC(=O)C4CCN(c5ccc(C#N)c(C(F)(F)F)c5)CC4)nc3)C2)CCN1CC1CN(c2ccc3c(c2)C(=O)N(C2CCC(=O)NC2=O)C3=O)C1` (stereo partly drawn) [Example 32, 1-(4-cyano-3-(trifluoromethyl)phenyl)-N-(5-(3-(((3R)-4-((1-(2-(2,6-dioxopiperidin-3-yl)-1,3-dioxoisoindolin-5-yl)azetidin-3-yl)methyl)-3-methylpiperazin-1-yl)methyl)azetidin-1-yl)pyridin-2-yl)piperidine-4-carboxamide], the inhibition at 0.01 µM came out at 62%, the inhibition at 0.1 µM came to 99% and the inhibition at 1 µM worked out at 99%.

A word on the inhibition: it is the relative decrease from the control value, in per cent.
